Measured values: PMC8268181, “Pharmacokinetic evaluation of Chalcone derivatives with antimalarial activity in New Zealand White Rabbits” (BMC Research Notes, 2021)
Entries after “also recorded” stand apart in the source; their conditions may differ. Like-named read-outs stand apart in the source and are kept apart here. One block for each compound: values may come before it.

Test: In vivo pharmacokinetic study, single intraperitoneal/oral dose, plasma concentration by RP-HPLC
Set-up: species or system New Zealand White rabbits
Settings: for Cmax / C0 / AUC(0-t) / half-life / Tmax: both sexes, New Zealand White, plasma; for Cmax: read-out: Cmax (peak plasma concentration); for C0: read-out: C0 (concentration of administrated drug at time zero); for AUC(0-t): linear trapezoidal method, read-out: AUC0–48 (area under the total plasma concentration–time curve); for half-life: read-out: t1/2 (elimination half-life) (converted); for Tmax: rabbit, read-out: tmax (time to reach the peak plasma concentration); for increased bioavailability as compared to in vitro concentration: in vitro concentration from ref 15; for bioavailability (in words): single dose, derivative 1 intraperitoneal, derivatives 2 and 3 oral
From the text: The ten healthy adult New Zealand White rabbits weighing between 1.75–2.75 kg of either sex were procured from the institute Advanced Facility for Small Animal Research, PGIMER Chandigarh, after approval from the Institutional Animal Ethics Committee Ref. No. 69/IAEC/418 as per the Committee for the Purpose of Control and Supervision of Experiments on Animals (CPCSEA) guidelines. The animals were housed in polypropylene cages under standard laboratory conditions at controlled temperature (25 ± °C) and 12-h light/dark cycles until the end of the experimental period. Animals were given free access to diet and water in a room and were fasten for at least 12 h prior to experiment. To achieve meaningful statistical results, we used a minimally sufficient number of animals in all cases. A fifteen-days washout period was carried out, which allows animals to completely recover and clear off the administered derivatives.
A total of ten healthy adult New Zealand White rabbits were divided into three groups; (i) derivative 1 treated group, (ii) derivative 2 treated group, and (iii) derivative 3 treated group. The whole experiment was performed in two batches with each batches containing n = 3 animals per group. The second batch with same groups were repeated after giving fifteen-days washout period which helps animals to recover and clear off previous administered derivatives. The three chalcone derivatives were administered at effective dose concentration [dose extrapolated from in vitro study, [15] as per OECD GLP compliance. A single dose of each chalcone derivatives 1, 2 & 3 (suspended in 0.5% carboxymethyl cellulose) were administered to each animal in the early morning at 7:00 am, which was noted as 0 h and then blood samples (1 mL) of animals were collected at specific time intervals of 0, 0.25 h, 0.5 h, 1 h, 2 h, 4 h, 6 h, 8 h, 12 h, 24 h, 36 h, 48 h from marginal ear vein in heparin containing vials. These derivatives were either administered orally through orogastric tube or intraperitoneally. All blood samples were collected from the marginal ear vein after topical anaesthesia with 4% lignocaine solution. No euthanasia procedure was required during the study, and after completion of experiments all animals were kept in rehabilitation centre according to CPCSEA guidelines, in the institute Advanced Facility for Small Animal Research, PGIMER, Chandigarh. Plasma samples for the determination of drug concentration were prepared for RP-HPLC analysis.
Rabbit blood samples were accumulated in heparin contained dry evacuated tubes from marginal ear veins of healthy rabbits as per the standard operating procedure. These samples were centrifuged within 1 h of collection, for segregation of plasma at 1500 rpm for 10 min. The segregated plasma was preserved at […] till assay. Prior experimental analysis the deproteinization of the plasma samples was done in the mixture of methanol and water (90:10 v/v), then vortexed for at least 10–15 min, after while centrifuged for at least 15 min at 6000 rpm, and finally supernatants were pipette-out in a new vial. The supernatants were then spiked with the measured volume of diluted stock solutions of chalcone making up to final concentrations of 10–100 μg/mL.
Each sample has been collected from rabbits at a different time interval and plasma was separated and either processed for assay procedure or stored at – 20 °C in deep freezer till experiment. On the day of the experiment, 100 µL of plasma from each vial was transferred to another and mixed with 100 µL of acetonitrile (HPLC analytical Grade). Then was kept for 5 min at room temperature and then centrifuged at 7000 rpm for 10 min. Supernatant was separated and reconstituted with the mobile phase and finally sterile filter with 0.22 µm membrane filter before the assay procedure.
Chromatographic separation was achieved as mentioned earlier with slight modification. […]

[1] = ip, derivative 1, single intraperitoneal dose 5.46 mg/1.5 kg rabbit, mean ± SEM, n = 6
[2] = 4.85 mg/kg, derivative 2, single oral dose 7.28 mg/1.5 kg rabbit, mean ± SEM, n = 5
[3] = derivative 2, single oral dose 7.28 mg/1.5 kg rabbit (4.85 mg/kg), mean ± SEM, n = 5
[4] = 3.64 mg/kg, derivative 3, single oral dose 5.46 mg/1.5 kg rabbit, mean ± SEM, n = 6

Cmax (ip, derivative 1, single intraperitoneal dose 5.46 mg/1.5 kg rabbit (text: 3.84 mg/kg), mean ± SEM, n = 6): 1960 ± 460 ng/mL
C0 [1]: 966 ± 25 ng/mL
AUC(0-t) [1]: 2.94 ± 0.83 µg·h/mL
half-life [1]: 12.6 ± 2.09 h
Tmax (ip, 5.46 mg/1.5 kg rabbit, derivative 1, single intraperitoneal dose 5.46 mg/1.5 kg rabbit (text: 3.84 mg/kg), mean ± SEM, n = 6): 0.33 ± 0.05 h
increased bioavailability as compared to in vitro concentration (compound 1, single intraperitoneal dose): three fold
first blood sampling time at which derivative was spotted in plasma (derivative 1, after IP administration): 15 min
mean CL (derivative 1, single 3.84 mg/kg intraperitoneal dose): 0.28 ± 0.08 L/h
Vd (volume of distribution) (derivative 1, single intraperitoneal dose 5.46 mg/1.5 kg rabbit, mean ± SEM, n = 6): 7.31 ± 0.29 L
bioavailability (in words): very low bioavailability
SMILES: COc1ccc(/C=C/C(=O)c2cc(OC)ccc2OC)cc1 [Derivative 1, (E)-1-(2,5-Dimethoxyphenyl)-3-(4-methoxyphenyl)prop-2-en-1-one]

C0 [2]: 986 ± 4 ng/mL
AUC(0-t) [2]: 3760 ± 739 µg·h/mL
half-life [2]: 93.3 ± 32.6 h
Tmax (po, 4.85 mg/kg, derivative 2, single oral dose 7.28 mg/1.5 kg rabbit (4.85 mg/kg), mean ± SEM, n = 5): 3.84 h
Cmax [3]: 69900 ± 5490 ng/mL
increased bioavailability as compared to in vitro concentration (compound 2, single oral dose): tenfold
mean CL (derivative 2, single 4.85 mg/kg oral dose): 0.15 ± 0.05 L/h
systemic exposure (in words) (derivative 2, single oral administration, compared to other two chalcone derivatives): comparatively better systemic exposure
time the peak concentration remained constant (derivative 2, single oral dose 4.85 mg/kg): 3 to 4 h
tmax (time to reach the peak plasma concentration) [3]: 3.4 ± 0.79 h
Vd (volume of distribution) (derivative 2, single oral dose 7.28 mg/1.5 kg rabbit, mean ± SEM, n = 5): 10.72 ± 0.66 L
SMILES: COc1ccc(/C=C/C(=O)c2cc(OC)c(OC)c(OC)c2)cc1 [Derivative 2, (E)-(3,4,5-Trimethoxyphenyl)-3-(4-methoxyphenyl)prop-2-en-1-one]

C0 [4]: 944 ± 7 ng/mL
AUC(0-t) [4]: 14.2 ± 3.78 µg·h/mL
half-life [4]: 13.3 ± 1.67 h
Tmax (po, 3.64 mg/kg, derivative 3, single oral dose 5.46 mg/1.5 kg rabbit (3.64 mg/kg), mean ± SEM, n = 6): 2.83 ± 0.87 h
Cmax (derivative 3, single oral dose 5.46 mg/1.5 kg rabbit (3.64 mg/kg), mean ± SEM, n = 6): 3740 ± 1640 ng/mL
increased bioavailability as compared to in vitro concentration (compound 3, single oral dose): 25 fold
mean CL (derivative 3, single 3.64 mg/kg oral dose): 0.53 ± 0.10 L/h
kinetics of metabolism / elimination phase (in words) (derivative 3, single oral dose): first order kinetics
Vd (volume of distribution) (derivative 3, single oral dose 5.46 mg/1.5 kg rabbit, mean ± SEM, n = 6): 9.12 ± 0.73 L
SMILES: COc1ccc(/C=C/C(=O)c2cc(OC)c(OC)c(OC)c2)cc1OC [Derivative 3, (E)-1-(3,4,5-Trimethoxyphenyl)-3-(3,4-dimethoxyphenyl)prop-2-en-1-one]
bioavailability (in words): poor bioavailability; also recorded: very low bioavailability
